This test deals with T1, endogenous UTY (Homo sapiens, UniProt O14607).
T1 construct: endogenous UTY; endogenous in cells; host or cells: THP-1 nuclear extract mixed 1:1 with HEK293 lysate
The test can be described thus: Bead competition binding assay using immobilized example 1, concentration response curve (HEK293/THP-1 lysate mix). The settings on record: competition of binding to immobilized example 1, 0.156-40 µM, HEK293 lysate mixed 1:1 with THP-1 nuclear extract. The method, then:
Then the affinity matrix with the immobilized example 1 was added to capture proteins that were not interacting with the previously added free reference compound. Beads were separated from the lysate and bead bound proteins were eluted in SDS sample buffer and subsequently separated by SDS-Polyacrylamide gel electrophoresis. The gel was stained with colloidal Coomassie and stained areas of each gel lane were cut out and subjected to in-gel proteolytic digestion with trypsin. Peptides originating from the different gel areas were labeled with isobaric tagging reagents (TMT reagents, Thermofisher) as shown in Table 6.
JMJD3 DNA encoding the catalytic domain (residues 1141-1682, lacking residues 1637-1675; GenBank BC009994) was amplified by PCR and sub cloned into pCDNA3.1 (+) (Invitrogen, V79020) using BamHI and EcoRI A Flag tag was included in the 5' primer, downstream of the BamHI cloning site. […]
HEK293 cells were homogenized in a Potter S homogenizer in lysis buffer: 50 mM Tris-HCl, 0.8% NP40, 5% glycerol, 150 mM NaCl, 1.5 mM MgCl2, 25 mM NaF, 1 mM sodium vanadate, 1 mM DTT, pH 7.5. […] The supernatant was transferred again to a fresh 50 ml falcon tube, the protein concentration was determined by a Bradford assay (BioRad) and samples containing 50 mg of protein per aliquot were prepared. […]

Molecules are shown by their SMILES.

T1 sequence (O14607 whole entry): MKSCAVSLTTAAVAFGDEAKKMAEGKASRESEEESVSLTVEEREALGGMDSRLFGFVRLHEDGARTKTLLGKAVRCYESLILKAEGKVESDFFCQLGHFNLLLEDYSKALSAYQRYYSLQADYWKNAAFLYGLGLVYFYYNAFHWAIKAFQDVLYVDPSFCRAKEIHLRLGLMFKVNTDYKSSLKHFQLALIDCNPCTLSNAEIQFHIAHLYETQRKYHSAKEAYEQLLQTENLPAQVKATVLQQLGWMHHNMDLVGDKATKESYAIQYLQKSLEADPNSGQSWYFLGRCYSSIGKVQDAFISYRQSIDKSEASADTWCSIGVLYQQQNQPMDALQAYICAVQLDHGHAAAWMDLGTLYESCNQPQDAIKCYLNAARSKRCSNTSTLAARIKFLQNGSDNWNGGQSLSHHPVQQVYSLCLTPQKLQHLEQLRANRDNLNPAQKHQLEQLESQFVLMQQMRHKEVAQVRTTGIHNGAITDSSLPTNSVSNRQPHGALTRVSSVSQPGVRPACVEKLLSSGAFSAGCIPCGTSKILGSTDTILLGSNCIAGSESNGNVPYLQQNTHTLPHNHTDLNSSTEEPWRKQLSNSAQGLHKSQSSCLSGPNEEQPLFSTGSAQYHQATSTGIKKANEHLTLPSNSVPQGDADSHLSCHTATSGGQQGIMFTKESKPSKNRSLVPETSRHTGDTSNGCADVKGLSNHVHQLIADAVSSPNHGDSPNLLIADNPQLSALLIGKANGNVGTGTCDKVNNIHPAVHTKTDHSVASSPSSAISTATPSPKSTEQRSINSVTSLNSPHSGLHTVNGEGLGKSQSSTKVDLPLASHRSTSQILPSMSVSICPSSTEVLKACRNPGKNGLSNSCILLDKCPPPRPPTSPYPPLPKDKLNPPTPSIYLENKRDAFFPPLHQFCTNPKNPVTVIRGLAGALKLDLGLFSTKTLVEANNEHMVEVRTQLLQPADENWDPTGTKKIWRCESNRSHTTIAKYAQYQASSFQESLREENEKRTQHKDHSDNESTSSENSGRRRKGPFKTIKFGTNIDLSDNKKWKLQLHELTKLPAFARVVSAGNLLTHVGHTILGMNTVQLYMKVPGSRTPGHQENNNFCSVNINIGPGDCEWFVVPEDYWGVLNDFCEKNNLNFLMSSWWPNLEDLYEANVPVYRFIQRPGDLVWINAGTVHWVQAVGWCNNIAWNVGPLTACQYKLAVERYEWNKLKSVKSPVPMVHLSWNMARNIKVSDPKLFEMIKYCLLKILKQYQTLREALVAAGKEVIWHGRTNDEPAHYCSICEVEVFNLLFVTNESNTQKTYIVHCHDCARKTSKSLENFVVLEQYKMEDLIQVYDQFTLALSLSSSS

As a reminder, the IC50 is the concentration at which inhibition is half-maximal. A lower IC50 goes with higher potency. Turning to `O=C(O)CCNc1cc(N2CCc3ccccc3CC2)nc(-c2ccccn2)n1` [Reference example 2, N-[2-(2-pyridinyl)-6-(1,2,4,5-tetrahydro-3H-3-benzazepin-3-yl)-4-pyrimidinyl]-β-alanine], the IC50 was 1400 nM.

The values above are taken from EP2592154A1, “Immobilization products and methods for the identification of histone demethylase interacting molecules and for the purification of histone demethylase proteins” (CELLZOME AG, priority 2011, dated 2013).
